Measurements taken from US6642221B1, “Vanadium compounds as anti-proliferative agents” (Parker Hughes Institute, priority 2000, dated 2003).
Like-named read-outs stand apart in the source and are kept apart here.

Legend:
[1] = test system: Zebrafish embryos; experiment: Zebrafish embryo model system: embryos exposed to compound in medium, cell division observed; format: in vivo, Zebrafish (Danio rerio); settings: for inhibition of mitosis in treated embryos: 10 μM to 4 mM in medium; for effect on embryo development: 120 minutes; for effect on embryo cell division: thirty minutes after treatment
Experimental: Two-cell stage Zebrafish embryos were dechorionated with 1% trypsin-EDTA and treated with 1% DMSO at a temperature of 28.5° C. Zebrafish embryos were removed from their chorions by mild digestion in 1% Trypsin-EDTA (Sigma, St. Louis, Mo.) for 10 minutes at 28.5° C. (Standard temperature - ST), washed three times in “egg water” and twice in “embryonic medium” (EM) as described in Westerfield, M., The Zebrafish Book, Supra. The dechorionated two-cell stage cleaving eggs/embryos were transferred to the 24-well plastic cell culture plates (Costar, Cambridge, Mass.) filled with EM. Dechorionated embryos (10-12 per well) were exposed to VDC and VDacac at a constant ST for 0.5-24 hours. The final volume of the medium in each well was 500 μL. Both compounds were used at concentrations ranging from 10 μM to 4 mM. The compounds were dissolved in DMSO and then diluted serially with the incubation medium. The final concentration of DMSO in the wells was 1.2%. The sham-treated control embryos were incubated in EM in the presence of 1.2% DMSO.
(§1) Observations of cell division and development of the Zebrafish embryos were carried out using a SMZ-10A stereo microscope, once every 30 minutes within the first 3 hours of incubation and at 6, 12 and 24 hours, as well. […] The stereo microscope was fitted with a specially designed transparent heating tray in order to keep embryos at ST during observations. Pictures of the embryos were taken with a H-III Photomicrographic System (Nikon) using Ektachrome 64X film (Kodak, Rochester, N.Y.).

[2] = test system: Zebrafish embryos; experiment: Microinjection of Zebrafish embryos, cell division and development observed; format: in vivo, Zebrafish (Danio rerio)
From the text: VDC and VDacac were microinjected into Zebrafish embryos at room temperature, using a SMZ-10A stereo microscope (Nikon, Melville, N.Y.) and Transjector 5246 (Eppendorf, Westbury, N.Y.). Dechorionated Zebrafish embryos at the two-cell stage were transferred to a Petri dish filled with embryonic medium. The bottom of the Petri dish was covered with an agar layer, and the embryos were placed in grooves in agar, exactly as described in Westerfield, M., The Zebrafish Book, Supra. Microinjections were performed under visual control. At the 2-4 cell stage, approximately 2 nL of the compound dissolved in Hank's Balanced Salt Solution (HBSS) (Gibco, Rockville, Md.) with 10% DMSO was injected into the cytoplasm of one of the blastomeres through a constantly flowing micropipette with a splinted sharp tip of 2-3 μm diameter. Sham-treated control embryos were injected with 2 nL of HBSS containing 10% DMSO. After the treatment, the embryos were transferred to standard temperature, 28.5° C.
as §1

[3] = test system: BT-20 breast cancer cells; experiment: MTT cytotoxicity assay; format: cell-based, human; settings: BT20, 48 hours; read-out: IC50 (inhibition of cellular proliferation, MTT)
Experimental: (§2) BT-20 and MDA-MB-231 breast cancer cells (HTB-19, HTB-26 ATCC, Rockville, Md.) and U373 glioblastoma cells (HTB-17 ATCC Rockville, Md.) were grown in MEM media modified with 10% Fetal Bovine serum and 1% Penicillin/Streptomycin (Life Technologies, Rockville Md.). Cells were seeded onto sterile 22 mm square coverslips in 6-well plates. Cells on coverslips were kept in an incubator for 24 hours prior to treatment. The following day, VDC or VDacac was added from a stock solution made in DMSO to yield final concentration ranging from 3.9 to 500 μM (final DMSO concentration=0.025%). Cells were returned to a 37° C. incubator for 24 hours.
(§3) The cytotoxicity of VDC and VDacac against the human tumor cell lines discussed above was assayed using the MTT (3-[4,5-dimethylthiazol-2-yl]-2,5-diphenyl tetrazolium bromide) assay (Boehringer Mannheim Corp., Indianapolis, Ind.). Briefly, exponentially growing tumor cells were seeded into a 96-well plate at a density of 2.5×10^4 cells/well and incubated for 36 hr at 37° C. prior to drug exposure. On the day of treatment, culture medium was carefully aspirated from the wells and replaced with fresh medium containing VDC or VDacac at concentrations ranging from 3.9 to 500 μM. Triplicate wells were used for each treatment. The cells were incubated with the vanadium compounds for 48 hours at 37° C. in a humidified 5% CO2 atmosphere. To each well, 10 μl of MTT (0.5 mg/ml final concentration) was added and the plates were incubated at 37° C. for 4 hours to allow MTT to form formazan crystals by reacting with metabolically active cells. The formazan crystals were solubilized overnight at 37° C. in a solution containing 10% SDS in 0.01 M HCl. The absorbence of each well was measured in a microplate reader (Labsystems, Helsinki, Finland) at 540 nm and a reference wavelength of 690 nm. To translate the OD540 values into the number of live cells in each well, the OD540 values were compared to those on standard OD540—versus—cell number curves generated for each cell line. The percent survival was calculated using the formula: % survival=Live cell number[test]/Live cell number [control]×100. The IC50 values were calculated by non-linear regression analysis using Graphpad Prism software version 2.0 (Graphpad Software, Inc., San Diego, Calif.).

[4] = test system: MDA-MB-231 breast cancer cells; experiment: MTT cytotoxicity assay; format: cell-based, human; settings: MDA-MB-231, 48 hours; read-out: IC50 (inhibition of cellular proliferation, MTT)
Experimental: as §2, §3

[5] = test system: U373 glioblastoma cells; experiment: MTT cytotoxicity assay; format: cell-based, human; settings: U373, 48 hours; read-out: IC50 (inhibition of cellular proliferation, MTT)
Experimental: as §2, §3

[6] = test system: BT-20 breast cancer cells; experiment: Immunocytochemistry and confocal microscopic analysis of mitotic spindles; format: cell-based, human; settings: BT-20 cells; for mitotic spindle morphology (α-tubulin, DNA): confocal microscopy
Experimental: as §2
At the appropriate time point, coverslips containing BT-20 cells were fixed in −20° C. methanol for 15 minutes followed by 15 minutes incubation in phosphate buffered saline +0.1% Triton X-100 (PBS+Tx). Coverslips were next incubated with a primary antibody recognizing α-tubulin (Sigma, St.Louis Mo.) γ-tubulin (BAbCo, Berkeley Calif.), or NuMA (Calbiochem, SanDiego Calif.) for 40 minutes in a humidified chamber at 37° C. Coverslips were washed for 15 minutes in PBS-Tx followed by a 40 min incubation with a fluorescently labeled secondary antibody (Jackson Immunoresearch, West Grove Pa.). For double labeling the respective primary and secondary antibodies were combined. The coverslips were again rinsed in PBS-Tx and incubated with 5 μM Toto−3 (Molecular Probes, Eugene Oreg.) for 20 minutes to label the DNA. Coverslips were immediately inverted onto slides in Vectashield (Vector Labs, Burlingame, N.H.) to prevent photobleaching, sealed with nail polish and stored at 4° C. Bovine oocytes were processed for immunocytochemistry as described previously. Navara et al., Dev. Biol., 162: 29-40, 1994.
Slides were examined using a Bio-Rad MRC-1024 Laser Scanning Confocal Microscope mounted on a Nikon Eclipse E800 upright microscope with high numerical aperture objectives. Digital data was processed using Lasersharp (Bio-Rad, Hercules Calif.) and Photoshop (Adobe Systems Mountain View Calif.) software and printed on a Pictrography printer (Fuji Photo Elmsford, N.Y.).

[7] = test system: germinal vesicle stage bovine oocytes; settings: 24 hours; for oocytes matured to metaphase of meiosis II (MII): control 93%
Experimental: Immature oocytes were recovered from bovine ovaries after slaughter by aspiration of 5 mm follicles. Only oocytes having a homogenous cytoplasm and surrounded by at least three layers of cumulus cells were selected. These were washed through three rinses of Hepes buffered Tyrode's media (114 mM NaCl, 3.2 mM KCl, 2 mM CaCl22H2O, […] MgCl26H2O, 25 mM NaHCO3, 0.4 mM NaH2PO4, 10 mM Na lactate, 100 I.U./ml Penicillin)(TL-Stock) modified with 10 mM Hepes, 1 mg/ml BSA, 0.2 mM pyruvate, and 25 μg/ml gentamicin (TL-Hepes; (16). Oocytes were matured for 24 hours in 50 μl drops of TC199 modified with 10% fetal bovine serum, 5 μg/ml FSH-p, 25μg/ml gentamicin, 1 μg/ml estrogen at 39° C. in 5% CO2 under mineral oil (17). After the oocytes were placed in the drops, 25 or 50 μM VDC was added in DMSO. Equal amounts of DMSO were added to control drops. Bovine oocytes were processed for immunocytochemistry after 24 hours.
Germinal vesicle stage bovine oocytes were matured in vitro in the presence of vehicle or VDC (25 μM or 50 μM). After 24 hours, these oocytes were fixed, labeled with anti-tubulin antibodies and the DNA dye TOTO−3. Oocytes were scored according to their stage in meoisis, microtubule organization and chromosome number.

[8] = test system: dynein ATPase activity found in sperm axonemes; settings: 100 μM
Experimental: The effect of VDC on ATPase and GTPase activity was determined by isolating sperm axonemes after treatment of human sperm with 100 μM VDC. Sperm were pelleted by centrifugation 1900×g for 15 min, washed twice in cold PBS, resuspended in extraction buffer (1.0% Triton X-100, 0.1 M NaCl, 4 mM MgSO4, 1 mM CaCL2, 0.1 mM EDTA, 0.1 mM ATP, 7 mM 2-mercaptoethanol, and 5 mM imidazole buffer pH 7.0) and disrupted using a Dounce homogenizer. This homogenized suspension was centrifuged at 1500×g for 5 min to remove sperm heads and the resulting supernatant was recentrifuged at 12,000×g to recover the broken axonemes.
The axoneme pellet was resuspended in extraction buffer to remove residual membrane material, centrifuged at 1500×g for 5 min to remove residual sperm heads followed by centrifugation at 12,000×g to recover axonemes. The recovered axonemes were washed three times in extraction buffer lacking Triton X-100 and resuspended in solubilization buffer (0.6 M NaCl, 4 mM MgSO4, 1 mM CaCl2, 0.1 mM EDTA, 1 mM DTT, 7 mM 2-mercaptoetanol, 5 mM imidazole buffer pH 7.0) to solubilize the readily extractable motor protein dynein. The suspension was then centrifuged at 12,000×g. […] ATPase activity was measured using the EnzChek Phophate assay kit (Molecular Probes, Eugene Oreg.) according to manufacturers instructions.

[9] = test system: tumor cell; settings: Kopf-Maier et al. 1983; cited from earlier work
[10] = test system: pharyngonasal cancer; settings: single assay, Sakurai et al. 1995; cited from earlier work

In the case of CC(=O)C=C(C)[O-].O=S(=O)([O-])C(F)(F)F.[V+4].c1cc[cH-]c1.c1cc[cH-]c1 [VDacac, Vanadocene acetylacetonato monotriflate], the “inhibition of mitosis in treated embryos” value [1] is reported as “inhibited mitosis in a concentration-dependent fashion”, the “effect on embryo development” value ([1]; 0.4 mM) is reported as “developed similar defects” and the “effect on embryo cell division” value ([1]; 0.6 mM) is reported as “cell division defects followed by fusion of the embryonic cells”. For the same molecule, the “effect on embryonic development after microinjection” value (“effect on embryonic development” for short) ([2]; 1 pmoL microinjected (lower)) was “formation of a blastocoel-like cavity in the blastoderm and prevented gastrulation”, the “effect on embryonic development” value ([2]; 49 pmoL microinjected (higher)) was “deterioration of cell localization and development failure” and the IC50 [3] was 26.9 µM. For the same molecule, the IC50 [4] was 9.1 µM, the IC50 [5] was 35.5 µM and the “mitotic spindle morphology (α-tubulin, DNA)” value [6] was “aberrant monopolar mitotic structures”.

For Vanadocene dichloride [VDC], the “inhibition of mitosis in treated embryos” value [1] was “inhibited mitosis in a concentration-dependent fashion”, the “effect on embryo development” value ([1]; 0.76 mM) was “developed abnormal blastulae” and the “effect on embryo cell division” value ([1]; 1.9 mM) was “cell division defects followed by fusion of the embryonic cells”. The “effect on embryonic development” value ([2]; 0.64 pmol microinjected (lowest)) was “formation of a blastocoel-like cavity in the blastoderm and prevented gastrulation”, the “effect on embryonic development” value ([2]; 32 pmol microinjected (higher)) was “cell division slow-down and total disarray of cell localization and development arrest” and the “effect on embryonic development” value ([2]; 58 pmol microinjected (highest)) was “total cell fusion within 30 minutes of microinjection”. For the same molecule, the “oocytes matured to metaphase of meiosis II (MII)” value ([7]; 25 μM) was 16.2%, the “oocytes matured to metaphase of meiosis II (MII)” value ([7]; 50 μM) was 10.0% and the “oocytes with abnormal meiotic spindles” value ([7]; 25 or 50 μM, control 4%) was at least 50%. For the same molecule, the IC50 [3] was 14.9 µM, the IC50 [4] was 11 µM and the IC50 [5] was 18.6 µM. For the same molecule, the NuMA localization [6] was “only localized to one side of the mitotic spindle”, the “γ-tubulin spindle pole labeling” value [6] was “two foci of γ-tubulin on the same side of the chromosomes” and the “mitotic spindle morphology (α-tubulin, DNA)” value [6] was “aberrant monopolar mitotic structures”. For the same molecule, the “inhibition of ATPase activity found in axonemes” value ([8]; four separate experiments) was 12.2%, the “ATPase activity found in axonemes” value ([8]; control 0.08±0.01) was 0.07±0.02 and the tumor cell growth [9] was “arrest tumor cell growth”.

For O.O.O=S(=O)([O-])[O-].[O]=[V+2].c1cnc2c(c1)ccc1cccnc12 [[VO(Phen)(H2O)2](SO4), (diaqua)(1,10-phenanthroline)oxovanadium (IV) sulfate], the “activity against pharyngonasal cancer” value [10] is given as “active agent against pharyngonasal cancer”.
